# Source: ChEMBL document CHEMBL1201862, “PubChem BioAssay data set” (2004)
# Active and inactive are the calls of the source. Rule as the data show it, for most assays here: actives have a measured EC50 and inactives only a lower limit.
# What was measured:
# [1] = NIH-3T3 fibroblast cytotoxicity, dose response, cytotoxicity control, cell-based, fluorescence, Alamar Blue, secondary assay (AID 2327); assay type: functional;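 also: NIH-3T3 mouse fibroblasts cultured with fluconazole at 8 µg/mL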
# [2] = fluconazole-exposed Candida albicans growth modulators – fluorescence, retest, confirmation (AID 2467); assay type: functional, cell-based
# [3] = target: T1, Calpain-2 catalytic subunit (Sus scrofa, UniProt P43367); assay: m-calpain protease blockers, concentration series – biochemical, fluorogenic peptide substrate, dose response (AID 1420); assay type: functional
# T1 sequence (P43367 whole entry): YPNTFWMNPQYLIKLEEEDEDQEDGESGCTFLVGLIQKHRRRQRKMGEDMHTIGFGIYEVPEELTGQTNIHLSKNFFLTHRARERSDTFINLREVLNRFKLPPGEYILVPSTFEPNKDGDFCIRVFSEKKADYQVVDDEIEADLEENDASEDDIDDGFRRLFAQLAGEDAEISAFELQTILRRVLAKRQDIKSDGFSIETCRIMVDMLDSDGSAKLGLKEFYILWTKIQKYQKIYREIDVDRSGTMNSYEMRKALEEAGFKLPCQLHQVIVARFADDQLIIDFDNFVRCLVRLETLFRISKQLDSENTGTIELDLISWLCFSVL
# [4] = target: FAD-linked sulfhydryl oxidase ALR (Homo sapiens, UniProt P55789); assay: ALR-catalysed DTT oxidation blockers – biochemical, H2O2 detection, luminescence, cherry-pick, dose response (AID 493248)
# FAD-linked sulfhydryl oxidase ALR, sequence (P55789 whole entry): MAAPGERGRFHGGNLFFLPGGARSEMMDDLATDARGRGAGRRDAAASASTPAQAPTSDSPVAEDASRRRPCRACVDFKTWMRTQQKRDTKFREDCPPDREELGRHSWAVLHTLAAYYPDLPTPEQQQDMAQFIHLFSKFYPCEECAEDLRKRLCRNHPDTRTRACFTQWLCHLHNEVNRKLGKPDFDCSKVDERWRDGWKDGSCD
# [5] = target: Luciferin 4-monooxygenase (Photinus pyralis, UniProt P08659); assay: inhibition of purified Photinus pyralis luciferase – biochemical, luminescence, dose response (AID 1891)
# Luciferin 4-monooxygenase, sequence (P08659 whole entry): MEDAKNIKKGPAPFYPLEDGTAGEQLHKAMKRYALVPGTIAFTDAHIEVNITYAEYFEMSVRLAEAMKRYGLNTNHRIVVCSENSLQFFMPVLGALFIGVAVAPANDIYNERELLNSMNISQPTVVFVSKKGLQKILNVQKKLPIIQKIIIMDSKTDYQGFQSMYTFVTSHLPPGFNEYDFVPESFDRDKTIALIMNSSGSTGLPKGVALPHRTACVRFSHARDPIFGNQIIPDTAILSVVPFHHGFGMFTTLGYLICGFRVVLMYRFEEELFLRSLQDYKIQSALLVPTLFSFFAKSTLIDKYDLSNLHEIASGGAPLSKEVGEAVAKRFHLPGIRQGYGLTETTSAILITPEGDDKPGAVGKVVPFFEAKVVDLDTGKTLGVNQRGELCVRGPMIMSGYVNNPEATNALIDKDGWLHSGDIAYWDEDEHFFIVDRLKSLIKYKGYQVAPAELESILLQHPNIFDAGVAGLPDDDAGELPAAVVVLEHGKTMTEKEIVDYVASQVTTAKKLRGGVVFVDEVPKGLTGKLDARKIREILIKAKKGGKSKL
# [6] = Luminescence Cell-Based Dose Confirmation HTS to Identify Inhibitors of Platelet Dense Granule Release. [Related pubchem assays: 1663 (Primary HTS), 1678 (Summary of Project)]; assay type: functional
# [7] = target: T2, RNA-binding protein pos-1 (Caenorhabditis elegans, UniProt G5EF15); assay: disruptors of C. elegans POS-1 RNA interaction – biochemical, fluorescence polarization, dose response (AID 1964);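 also: purified POS-1 fused to maltose binding protein made in E. coli; potency of compounds blocking POS-1 binding to fluorescent RNA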
# T2 sequence (G5EF15 whole entry): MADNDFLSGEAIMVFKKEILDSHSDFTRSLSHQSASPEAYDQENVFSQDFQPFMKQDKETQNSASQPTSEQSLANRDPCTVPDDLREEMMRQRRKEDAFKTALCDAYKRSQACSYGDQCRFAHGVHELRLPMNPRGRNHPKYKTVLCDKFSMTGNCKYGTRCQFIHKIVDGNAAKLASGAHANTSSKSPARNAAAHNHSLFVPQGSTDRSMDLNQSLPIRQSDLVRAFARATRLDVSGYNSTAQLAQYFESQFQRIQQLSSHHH
# [8] = target: T3, Zinc finger protein mex-5 (Caenorhabditis elegans, UniProt Q9XUB2); assay: potency of MEX-5 RNA-binding blockers – biochemical, C. elegans, fluorescence polarization, dose response (AID 1960)
# T3 sequence (Q9XUB2 whole entry): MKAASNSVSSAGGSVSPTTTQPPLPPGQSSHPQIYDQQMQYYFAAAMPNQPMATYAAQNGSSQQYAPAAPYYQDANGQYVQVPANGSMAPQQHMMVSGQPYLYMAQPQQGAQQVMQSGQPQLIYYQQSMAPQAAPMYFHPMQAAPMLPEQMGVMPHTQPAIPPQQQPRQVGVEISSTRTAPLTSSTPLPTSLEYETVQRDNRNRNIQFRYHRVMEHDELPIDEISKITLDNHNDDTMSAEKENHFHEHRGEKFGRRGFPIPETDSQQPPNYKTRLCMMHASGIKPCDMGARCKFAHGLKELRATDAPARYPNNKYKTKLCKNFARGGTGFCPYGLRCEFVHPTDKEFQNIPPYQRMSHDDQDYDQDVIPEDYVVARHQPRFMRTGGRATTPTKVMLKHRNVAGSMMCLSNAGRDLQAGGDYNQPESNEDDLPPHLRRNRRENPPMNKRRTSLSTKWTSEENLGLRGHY
# [9] = target: T4, Corticotropin-releasing factor receptor 2/Corticotropin-releasing factor-binding protein (Homo sapiens, UniProt P24387+Q13324); assay: Dose Response confirmation of uHTS hits for small molecule antagonists of the CRF-binding protein and CRF-R2 receptor complex.; assay type: functional; settings: read-out: IC50_Mean
# T4 sequence (Q13324 whole entry): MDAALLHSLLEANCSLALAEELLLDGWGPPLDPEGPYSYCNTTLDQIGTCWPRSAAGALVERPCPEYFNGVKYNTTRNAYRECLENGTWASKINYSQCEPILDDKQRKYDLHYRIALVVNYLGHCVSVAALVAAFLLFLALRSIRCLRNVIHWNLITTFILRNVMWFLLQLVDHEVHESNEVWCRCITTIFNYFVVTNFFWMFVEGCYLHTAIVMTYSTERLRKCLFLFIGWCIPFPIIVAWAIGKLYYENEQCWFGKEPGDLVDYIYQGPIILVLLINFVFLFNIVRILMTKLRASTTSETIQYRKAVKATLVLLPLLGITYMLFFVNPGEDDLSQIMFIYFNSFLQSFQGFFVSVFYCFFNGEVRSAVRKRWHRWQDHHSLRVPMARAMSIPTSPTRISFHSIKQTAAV
# T4 sequence (P24387 whole entry): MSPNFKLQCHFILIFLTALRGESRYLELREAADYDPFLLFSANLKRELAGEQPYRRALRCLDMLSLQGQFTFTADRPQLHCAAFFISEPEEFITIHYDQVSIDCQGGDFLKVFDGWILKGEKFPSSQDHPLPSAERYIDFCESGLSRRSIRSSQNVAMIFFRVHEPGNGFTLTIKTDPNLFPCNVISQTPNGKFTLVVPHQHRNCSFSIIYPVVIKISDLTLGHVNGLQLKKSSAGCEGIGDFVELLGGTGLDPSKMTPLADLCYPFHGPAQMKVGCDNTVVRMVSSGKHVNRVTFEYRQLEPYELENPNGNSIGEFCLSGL
# [10] = target: T4, Corticotropin-releasing factor receptor 2/Corticotropin-releasing factor-binding protein; assay: activators of CRF receptor 2 with binding protein – uHTS hits, confirmation (AID 602473); assay type: functional; settings: read-out: EC50_Mean
# [11] = Luminescence Cell-Based Dose Retest to Confirm Inhibitors of Cancer Stem Cells. [Related pubchem assays (depositor defined):AID2717, AID2721]; assay type: functional; settings: Homo sapiens
# [12] = target: T5, Polyadenylate-binding protein 1 (Homo sapiens, UniProt P11940); assay: MLLE binding blockers, Cy5 peptide tracer – biochemical, fluorescence polarization, Cy5-PAM2 peptide, secondary, miRNA deadenylation inhibitor project, dose response (AID 602260); assay type: functional; settings: read-out: IC50_Mean
# T5 sequence (P11940 whole entry, the tested form may be a part): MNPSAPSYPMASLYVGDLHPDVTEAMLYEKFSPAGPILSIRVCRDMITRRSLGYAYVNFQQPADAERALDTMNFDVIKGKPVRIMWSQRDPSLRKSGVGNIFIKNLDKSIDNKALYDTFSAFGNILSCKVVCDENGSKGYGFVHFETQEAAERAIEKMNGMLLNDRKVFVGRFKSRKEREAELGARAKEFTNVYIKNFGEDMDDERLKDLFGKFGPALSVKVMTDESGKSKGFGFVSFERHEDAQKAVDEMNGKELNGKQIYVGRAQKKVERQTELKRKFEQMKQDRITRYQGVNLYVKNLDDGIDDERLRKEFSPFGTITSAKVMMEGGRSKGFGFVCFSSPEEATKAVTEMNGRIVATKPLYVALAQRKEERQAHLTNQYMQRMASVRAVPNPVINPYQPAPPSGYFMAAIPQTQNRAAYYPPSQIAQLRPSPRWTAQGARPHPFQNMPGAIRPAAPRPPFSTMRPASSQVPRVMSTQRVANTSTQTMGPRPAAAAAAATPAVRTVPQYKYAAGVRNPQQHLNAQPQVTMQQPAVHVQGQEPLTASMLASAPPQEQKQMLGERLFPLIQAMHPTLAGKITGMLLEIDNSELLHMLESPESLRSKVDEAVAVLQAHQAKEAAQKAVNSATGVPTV
# [13] = target: T5, Polyadenylate-binding protein 1; assay: MLLE domain peptide-binding blockers, IC50 – biochemical, fluorescence polarization, FITC-PAM2 peptide, dose response (AID 602259); assay type: functional; settings: read-out: IC50_Mean
# [14] = tested on: BJ; assay: BJ-TERT fibroblast viability loss – cell-based, RAS-independent, luminescence, dose response (AID 1933); assay type: functional; settings: Homo sapiens
# [15] = tested on: BJ; assay: cells; assay type: functional, cell-based; settings: Homo sapiens
# [16] = tested on: BJ; assay: BJ-TERT-LT-ST fibroblast viability loss – cell-based, RAS-independent, luminescence, dose response (AID 1935); assay type: functional; settings: Homo sapiens;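 also: BJ fibroblasts immortalized with TERT plus LT and ST oncogenes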
# [17] = DRD fibroblast viability loss – cell-based, non-viral oncogenic, luminescence, dose response (AID 1934); assay type: functional; settings: Homo sapiens
# [18] = target: T6, Ubiquitin-conjugating enzyme E2 N (Homo sapiens, UniProt P61088); assay type: functional;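 also: Dose-response confirmation in a TR-FRET assay detecting UBC13-driven polyubiquitin chain formation, inhibition measured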
# T6 sequence (P61088 whole entry): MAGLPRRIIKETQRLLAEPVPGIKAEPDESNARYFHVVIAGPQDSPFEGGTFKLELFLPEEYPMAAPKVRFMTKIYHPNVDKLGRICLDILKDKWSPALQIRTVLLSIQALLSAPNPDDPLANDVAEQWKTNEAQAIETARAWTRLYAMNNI
# [19] = luciferase reporter signal suppression in cells – H4 neuroglioma cells, luminescence, dose response (AID 1990); assay type: functional, cell-based
# [20] = Luminescence Cell-Based Dose Response HTS to Identify Inhibitors of 5'UTR Stem-Loop Driven Prion Protein mRNA Translation in H4 Neuroglioblastoma Cells. [Related pubchem assays: 1827 (Project Summary), 1813 (Primary HTS)]; assay type: functional
# [21] = alpha-synuclein stem-loop luciferase translation blockers – H4 neuroglioma cells, luminescence, confirmation (AID 1988); assay type: functional, cell-based
compound,measurement,setting,value
CC(C)CCOC(=O)C1C(c2ccccc2)C(C(=O)O)C1c1ccccc1 (stereo unspecified),EC50,[1],> 160 µM (inconclusive)
same,EC50,[2],4.96 µM (active)
COc1ccc(N2CCN(C(c3cccs3)C(C)NS(C)(=O)=O)CC2)cc1 (stereo unspecified),IC50,[3],5.8 µM (not active)
same,AC50,[4],1.67 µM (active)
Cn1cc(S(=O)(=O)N2CCOCC2)cc1C(=O)NCCc1ccccc1,EC50,[5],> 112 µM (not active)
same,EC50,[6],> 112 µM (not active)
COc1ccc(N(C(=O)Cn2nnc3ccccc32)C(C(=O)NC(C)(C)C)c2ccc(OC)c(O)c2)cc1 (stereo unspecified),EC50,[1],> 150 µM (inactive)
same,EC50,[2],1.62 µM (active)
CS(=O)(=O)N1CCC(Oc2ccccc2C(=O)N2CCN(CC3CC3)CC2)CC1,EC50,[5],> 112 µM (not active)
same,EC50,[6],> 112 µM (not active)
O=C(CCS(=O)(=O)Cc1ccccc1)Nc1nnc(C(F)(F)F)s1,EC50,[1],> 160 µM (inactive)
same,EC50,[2],0.741 µM (active)
N=C(N)NS(=O)(=O)c1ccc(NC(=S)NC(=O)/C=C/c2cccs2)cc1,EC50,[7],> 300 µM (not active)
same,EC50,[8],> 300 µM (not active)
COc1ccc(OC)c(Nc2nc(C3CC3)nc3c2nnn3Cc2ccccc2)c1,EC50,[5],> 112 µM (not active)
same,EC50,[6],> 112 µM (not active)
CCc1ccc(N2CC(C(=O)OCC(=O)c3c(N)n(CC(C)C)c(=O)n(C)c3=O)CC2=O)cc1 (stereo unspecified),EC50,[5],> 112 µM (not active)
same,EC50,[6],> 112 µM (not active)
NC(=O)C1(N2CCCCC2)CCN(Cc2nc(-c3cccs3)no2)CC1,EC50,[7],> 300 µM (not active)
same,EC50,[8],> 300 µM (not active)
CC(Oc1cc2oc(=O)c3c(c2cc1Cl)CCCC3)C(=O)NCc1ccncc1 (stereo unspecified),EC50,[1],> 150 µM (inactive)
same,EC50,[2],> 38 µM (not active)
O=C(c1ccco1)N1CCN=C1SCc1ccccc1Cl,AC50,[4],0.41 µM (active)
same,IC50,[9],> 47.1 µM (inactive)
same,EC50,[10],> 53 µM (inactive)
CC(=O)Nc1ccc(SC[C@H](C)CN2CC[C@H](C(C)(C)C)CCC2=O)cc1,AC50,[11],1.47 µM (active)
same,AC50,[4],0.687 µM (active)
same,IC50,[12],> 66 µM (inactive)
same,IC50,[13],> 66 µM (inactive)
O=C(O)CCC(=O)N1N=C(c2cccs2)CC1c1cn(-c2ccccc2)nc1-c1ccccc1 (stereo unspecified),EC50,[7],46.5 µM (active)
same,EC50,[8],> 300 µM (not active)
CN(C)CCCSc1nc2ccccc2s1,AC50,[4],0.171 µM (active)
COc1ccc(C2C(C(=O)Nc3cc(OC)c(OC)c(OC)c3)c3ccccc3C(=O)N2C)cc1 (stereo unspecified),EC50,[14],2.43 µM (inconclusive)
same,EC50,[15],104 µM (inconclusive)
same,EC50,[16],2.56 µM (inconclusive)
same,EC50,[17],2.62 µM (active)
CCc1cccc(NC(=O)CSC2=NS(=O)(=O)c3ccccc32)c1,IC50,[18],> 20 µM (inactive)
Cn1c(=O)[nH]c(=O)c2c1nc(N1CCCCCC1)n2CC(N)=O,EC50,[5],> 112 µM (not active)
same,EC50,[6],> 112 µM (not active)
COc1cccc2cc(C(C)N(CCCN3CCOCC3)C(=O)Nc3ccccc3)oc12 (stereo unspecified),EC50,[5],> 112 µM (not active)
same,EC50,[6],> 112 µM (not active)
Cc1ccc(S(=O)(=O)Nc2c(C(=O)O)[nH]c3ccccc23)c(C)c1,AC50,[4],12.7 µM (active)
CCN1CCN(C(=O)c2cc(-c3ccco3)nc3ccccc23)CC1,IC50,[18],> 20 µM (inactive)
Cc1ccc(S(=O)(=O)CCc2nnc(NC(=O)CCl)s2)cc1C,EC50,[14],3.06 µM (active)
same,EC50,[15],14.7 µM (active)
same,EC50,[16],> 150 µM (not active)
same,EC50,[17],10.5 µM (active)
COCCOC(=O)c1[nH]c2c(c1C)C(=O)CC(c1ccccc1)C2 (stereo unspecified),EC50,[19],8.73 µM (inconclusive)
same,EC50,[14],2.62 µM (inconclusive)
same,EC50,[20],10.6 µM (active)
same,EC50,[21],4.34 µM (active)
same,EC50,[15],4.01 µM (active)
same,EC50,[16],1.79 µM (active)
same,EC50,[17],2 µM (active)
N#CCC(=O)Nc1ccc(C(=O)NCc2ccccn2)cc1,AC50,[4],2.41 µM (active)
CC1=C(C(=O)OCc2ccccc2)C(c2ccccc2[N+](=O)[O-])NC(=O)N1C (stereo unspecified),EC50,[7],> 300 µM (not active)
same,EC50,[8],10.9 µM (active)
CN1C(=O)c2ccccc2NC(=O)[C@]12O[C@@H]2c1cccc(O)c1,EC50,[7],4.13 µM (active)
same,EC50,[8],35.1 µM (active)
CC(C)C[C@@H]1CN=C(N)N1C[C@@H]1CCCN1C[C@H](C)N1C[C@@H](Cc2ccccc2)N(CCc2ccc(Cl)c(Cl)c2)C1=N,IC50,[18],> 20 µM (inactive)
CCOC(=O)N1CCN(C(=O)Cc2ccc(-n3c(=S)[nH]c4ccccc4c3=O)cc2)CC1,IC50,[18],> 20 µM (inactive)
CC1CCCC(NC(=O)CSc2ncnc3ccccc23)C1C (stereo unspecified),IC50,[18],> 20 µM (inactive)
CC1(C)Cc2ccccc2C(N/N=C/c2ccc([N+](=O)[O-])cc2)=N1,EC50,[1],> 150 µM (inactive)
same,EC50,[2],> 38 µM (not active)
CCNc1nc(Cl)nc(NC(C)C)n1 [ATRAZINE],EC50,[5],> 112 µM (not active)
same,EC50,[6],> 112 µM (not active)
